From patent publication US10696726B2, “Insulin-incretin conjugates” (INDIANA UNIVERSITY RESEARCH AND TECHNOLOGY CORPORATION, priority 2013, dated 2020)
“And” between values parts separate entries of the source, which are not always exact repeats. Equal values may be shown once. Values belong to the molecule of their own block, whether it stands above or below them.

What was measured:
insulin receptor [1] = molecular target: T1, insulin receptor (Homo sapiens, UniProt P06213); experiment: Insulin receptor binding assay (competition, scintillation proximity); settings: for Ratio: Table 3, IGF-1 receptor IC50 over insulin receptor IC50
human IGF-1 receptor = human IGF-1 receptor (Homo sapiens, UniProt P08069); experiment: IGF-1 receptor binding assay (competition, scintillation proximity); settings: Table 3, relative to IGF-1 in the same test
Sequence of human IGF-1 receptor (P08069 31-736 limits assumed): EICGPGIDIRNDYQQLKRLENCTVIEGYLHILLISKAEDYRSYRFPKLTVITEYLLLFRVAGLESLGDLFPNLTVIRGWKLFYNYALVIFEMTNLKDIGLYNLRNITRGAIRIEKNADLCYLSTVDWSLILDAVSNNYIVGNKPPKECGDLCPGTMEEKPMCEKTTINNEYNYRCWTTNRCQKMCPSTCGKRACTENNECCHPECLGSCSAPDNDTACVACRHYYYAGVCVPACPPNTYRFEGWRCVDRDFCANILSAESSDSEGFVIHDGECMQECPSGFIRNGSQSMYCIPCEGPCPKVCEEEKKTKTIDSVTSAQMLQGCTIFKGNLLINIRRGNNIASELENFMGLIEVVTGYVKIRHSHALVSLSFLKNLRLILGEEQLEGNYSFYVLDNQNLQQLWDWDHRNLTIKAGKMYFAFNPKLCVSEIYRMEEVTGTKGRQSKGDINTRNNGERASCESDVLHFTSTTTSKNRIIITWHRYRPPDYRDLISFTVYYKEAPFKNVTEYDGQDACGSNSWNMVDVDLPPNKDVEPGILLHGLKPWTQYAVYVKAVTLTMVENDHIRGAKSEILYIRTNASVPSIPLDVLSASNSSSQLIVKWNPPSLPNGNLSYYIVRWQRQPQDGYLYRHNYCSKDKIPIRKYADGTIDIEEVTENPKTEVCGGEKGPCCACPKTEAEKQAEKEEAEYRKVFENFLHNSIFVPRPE
Sequence of human IGF-1 receptor (P08069 741-1367 partner limits assumed): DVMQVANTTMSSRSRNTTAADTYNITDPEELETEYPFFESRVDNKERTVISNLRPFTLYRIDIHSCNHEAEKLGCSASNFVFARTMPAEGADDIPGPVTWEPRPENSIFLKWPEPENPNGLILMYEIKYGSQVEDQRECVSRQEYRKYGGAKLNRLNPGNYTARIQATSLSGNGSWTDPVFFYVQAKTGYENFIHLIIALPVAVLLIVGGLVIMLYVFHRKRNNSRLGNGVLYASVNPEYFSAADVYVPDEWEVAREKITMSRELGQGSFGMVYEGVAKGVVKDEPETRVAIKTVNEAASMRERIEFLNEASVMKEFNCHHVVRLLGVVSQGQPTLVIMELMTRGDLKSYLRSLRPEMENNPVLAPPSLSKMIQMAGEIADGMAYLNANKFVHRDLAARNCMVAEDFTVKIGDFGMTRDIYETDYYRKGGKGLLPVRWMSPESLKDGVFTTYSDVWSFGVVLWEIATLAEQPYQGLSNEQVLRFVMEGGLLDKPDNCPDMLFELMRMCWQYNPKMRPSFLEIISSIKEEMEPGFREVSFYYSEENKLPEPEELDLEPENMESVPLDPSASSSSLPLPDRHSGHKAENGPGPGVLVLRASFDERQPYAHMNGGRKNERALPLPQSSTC

glucagon receptor = molecular target: T2, glucagon receptor (Homo sapiens, UniProt P47871); experiment: Glucagon functional assay, cAMP synthesis (luciferase reporter, HEK293 cells); type: cell-based; settings: FIG. 12
T2 construct: expressed in transfected cells; host or cells: HEK293

insulin receptor [2] = molecular target: T1, insulin receptor; experiment: Insulin receptor phosphorylation assay in receptor transfected HEK293 cells; type: cell-based; parameters: expressed in transfected cells; host or cells: HEK293; settings: FIGS. 10 and 11

- Ratio (insulin receptor [1]): 82.6
Molecule: CC[C@H](C)[C@H](NC(=O)CN)C(=O)N[C@H](C(=O)N[C@@H](CC(=O)O)C(=O)N[C@@H](CCC(=O)O)C(=O)N[C@H]1CSSC[C@@H]2NC(=O)[C@H](CO)NC(=O)[C@H](CCCNC(=N)N)NC(=O)[C@H](Cc3ccccc3)NC(=O)[C@H](CSSC[C@H](NC(=O)[C@H](CC(C)C)NC(=O)[C@@H](NC(=O)[C@H](CCC(=O)O)NC(=O)[C@@H]3CCCN3C(=O)CN)[C@@H](C)O)C(=O)NCC(=O)N[C@@H](CO)C(=O)N[C@@H](Cc3c[nH]cn3)C(=O)N[C@@H](CC(C)C)C(=O)N[C@@H](C(C)C)C(=O)N[C@@H](CCC(=O)O)C(=O)N[C@@H](C)C(=O)N[C@@H](CC(C)C)C(=O)N[C@@H](Cc3ccc(O)cc3)C(=O)N[C@@H](CC(C)C)C(=O)N[C@@H](C(C)C)C(=O)N[C@H](C(=O)NCC(=O)N[C@@H](CC(=O)O)C(=O)N[C@@H](CCCNC(=N)N)C(=O)NCC(=O)N[C@@H](Cc3ccccc3)C(=O)N[C@@H](Cc3ccc(O)cc3)C(=O)N[C@@H](Cc3ccccc3)C(=O)N[C@@H](CC(N)=O)C(=O)N[C@@H](CCCCN)C(=O)N3CCC[C@H]3C(=O)N[C@H](C(N)=O)[C@@H](C)O)CSSC[C@@H](C(=O)N[C@@H](C)C(N)=O)NC(=O)[C@H](Cc3ccc(O)cc3)NC(=O)[C@H](CCSC)NC(=O)[C@H](CCC(=O)O)NC(=O)[C@H](CC(C)C)NC(=O)[C@H](CCCNC(=N)N)NC(=O)[C@H](CCCNC(=N)N)NC(=O)[C@H](CC(C)C)NC(=O)[C@H](CC(=O)O)NC2=O)NC1=O)C(C)C

- % of Insulin Activity (insulin receptor [1]; Table 2, relative to Insulin Standard): 262%
Molecule: CC[C@H](C)[C@H](NC(=O)CN)C(=O)N[C@H](C(=O)N[C@@H](CC(=O)O)C(=O)N[C@@H](CCC(=O)O)C(=O)N[C@H]1CSSC[C@@H]2NC(=O)[C@H](CO)NC(=O)[C@H](CCCNC(=N)N)NC(=O)[C@H](Cc3ccccc3)NC(=O)[C@H](CSSC[C@H](NC(=O)[C@H](CC(C)C)NC(=O)[C@@H](NC(=O)[C@H](CCC(=O)O)NC(=O)[C@@H]3CCCN3C(=O)CN)[C@@H](C)O)C(=O)NCC(=O)N[C@@H](C)C(=O)N[C@@H](CCC(=O)O)C(=O)N[C@@H](CC(C)C)C(=O)N[C@@H](C(C)C)C(=O)N[C@@H](CC(=O)O)C(=O)N[C@@H](C)C(=O)N[C@@H](CC(C)C)C(=O)N[C@@H](Cc3ccc(O)cc3)C(=O)N[C@@H](CC(C)C)C(=O)N[C@@H](C(C)C)C(=O)N[C@H](C(=O)NCC(=O)N[C@@H](CC(=O)O)C(=O)N[C@@H](CCCNC(=N)N)C(=O)NCC(=O)N[C@@H](Cc3ccccc3)C(=O)N[C@@H](Cc3ccc(O)cc3)C(=O)N[C@@H](Cc3ccccc3)C(=O)N[C@@H](CC(N)=O)C(=O)N[C@@H](CCCCN)C(=O)N3CCC[C@H]3C(=O)N[C@H](C(N)=O)[C@@H](C)O)CSSC[C@@H](C(=O)N[C@@H](C)C(N)=O)NC(=O)[C@H](Cc3ccc(O)cc3)NC(=O)[C@H](CCSC)NC(=O)[C@H](CCC(=O)O)NC(=O)[C@H](CC(C)C)NC(=O)[C@H](CCCNC(=N)N)NC(=O)[C@H](CCCNC(=N)N)NC(=O)[C@H](CC(C)C)NC(=O)[C@H](CC(=O)O)NC2=O)NC1=O)C(C)C [IGF1 (Y^B16L^B17)]
- insulin receptor binding relative to native insulin (in words) (insulin receptor [1]; FIGS. 2-4, Tables 1 and 2): highly potent agonists of the insulin receptor

- IGF-1 Receptor % IGF-1 (in test) (human IGF-1 receptor): 0.9%
- Ratio (insulin receptor [1]): 22.6
- Insulin Receptor % insulin (in test) (insulin receptor [1]; Table 3, relative to insulin in the same test): 14.0% and 11.3% and 20.1%
- Insulin Receptor % native insulin activity (0.6 nM) (insulin receptor [1]; Table 3, relative to native insulin taken as 0.6 nM): 21.7% and 22.5% and 24.2%
Molecule: CC[C@H](C)[C@H](NC(=O)CN)C(=O)N[C@H](C(=O)N[C@@H](CC(=O)O)C(=O)N[C@@H](CCC(=O)O)C(=O)N[C@H]1CSSC[C@@H]2NC(=O)[C@H](CO)NC(=O)[C@H](CCCNC(=N)N)NC(=O)[C@H](Cc3ccccc3)NC(=O)[C@H](CSSC[C@H](NC(=O)[C@H](CC(C)C)NC(=O)[C@H](Cc3c[nH]cn3)NC(=O)[C@H](CCC(N)=O)NC(=O)[C@H](CC(N)=O)NC(=O)[C@@H](NC(=O)[C@@H](N)Cc3ccccc3)C(C)C)C(=O)NCC(=O)N[C@@H](CO)C(=O)N[C@@H](Cc3c[nH]cn3)C(=O)N[C@@H](CC(C)C)C(=O)N[C@@H](C(C)C)C(=O)N[C@@H](CCC(=O)O)C(=O)N[C@@H](C)C(=O)N[C@@H](CC(C)C)C(=O)N[C@@H](Cc3ccc(O)cc3)C(=O)N[C@@H](CC(C)C)C(=O)N[C@@H](C(C)C)C(=O)N[C@H](C(=O)NCC(=O)N[C@@H](CC(=O)O)C(=O)N[C@@H](CCCNC(=N)N)C(=O)NCC(=O)N[C@@H](Cc3ccccc3)C(=O)N[C@@H](Cc3ccc(O)cc3)C(=O)N[C@@H](Cc3ccccc3)C(=O)N[C@@H](CC(N)=O)C(=O)N[C@@H](CCCCN)C(=O)N3CCC[C@H]3C(=O)N[C@H](C(N)=O)[C@@H](C)O)CSSC[C@@H](C(=O)N[C@@H](C)C(N)=O)NC(=O)[C@H](Cc3ccc(O)cc3)NC(=O)[C@H](CCSC)NC(=O)[C@H](CCC(=O)O)NC(=O)[C@H](CC(C)C)NC(=O)[C@H](CCCNC(=N)N)NC(=O)[C@H](CCCNC(=N)N)NC(=O)[C@H](CC(C)C)NC(=O)[C@H](CC(=O)O)NC2=O)NC1=O)C(C)C [IGF-1 A: In (1-17)-IGF-1 B (18-30)]

- in vitro glucagon receptor activity (EC50 values, in words) (glucagon receptor): poor activity at the glucagon receptor
- in vitro insulin receptor activity (EC50 values, in words) (insulin receptor [2]): poor activity at the insulin receptor
Molecule: GLP-1: native GLP-1: GLP-1(7-36) amide SEQ ID NO: 703 or GLP-1(7-37) acid SEQ ID NO: 704 [reference compound]
